Data from ChEMBL document CHEMBL4699511, “Cedrol, a Sesquiterpene Alcohol, Enhances the Anticancer Efficacy of Temozolomide in Attenuating Drug Resistance via Regulation of the DNA Damage Response and MGMT Expression” (J Nat Prod, 2020).
Activity calls are given as the source filed them. No cut-off for these calls is given here.

Columns and labels:
RG2 [1] = experiment: Induction of DNA damage in rat RG2 cells assessed as Chk2 phosphorylation at Thr68 at 206 uM after 48 hrs by Western blot analysis (reference value: 1); type: functional
DBTRG-05MG [2] = experiment: Induction of cell cycle arrest in human DBTRG-05MG cells assessed as p53 expression at 206 uM after 48 hrs by Western blot analysis (reference value: 1); type: functional
[3] = Effect on AKT expression in human DBTRG-05MG cells at 206 uM after 48 hrs by Western blot analysis (reference value: 1); type: functional
DBTRG-05MG [4] = experiment: Induction of cell cycle arrest in human DBTRG-05MG cells assessed as accumulation at G0/G1 phase at 206 uM after 12 hrs by propidium iodide staining based flow cytometric analysis (reference value: 47.16 +/- 1.55%); type: functional
DBTRG-05MG [5] = experiment: Inhibition of ERK phosphorylation at Tyr204 residues in human DBTRG-05MG cells at 206 uM after 48 hrs by Western blot analysis (reference value: 1); type: cell-based
RG2 [6] = experiment: Inhibition of ERK phosphorylation at Tyr204 residues in rat RG2 cells at 206 uM after 48 hrs by Western blot analysis (reference value: 1); type: cell-based
DBTRG-05MG [7] = experiment: Induction of cell cycle arrest in human DBTRG-05MG cells assessed as accumulation at G0/G1 phase at 206 uM after 6 hrs by propidium iodide staining based flow cytometric analysis (reference value: 47.16 +/- 1.55%); type: functional
DBTRG-05MG [8] = experiment: Induction of DNA damage in human DBTRG-05MG cells assessed as Chk2 phosphorylation at Thr68 residues at 112.4 uM after 48 hrs by Western blot analysis (reference value: 1); type: functional
DBTRG-05MG [9] = experiment: Induction of apoptosis in human DBTRG-05MG cells assessed as Bcl2 expression at 112.4 uM after 48 hrs in presence of TMZ by Western blot analysis (reference value: 1); type: functional
[10] = Toxicity in BALB/c mouse xenografted with DBTRG-05MG cells assessed as reduction in body weight at 75 mg/kg, sc for 18 days co-treated with TMZ; type: organism-based; conditions: in vivo, 432 h, time 18 day
RG2 [11] = experiment: Induction of cell cycle arrest in rat RG2 cells assessed as CDK4 expression at 112.4 uM after 48 hrs by Western blot analysis (reference value: 1); type: functional
RG2 [12] = experiment: Synergistic cytotoxicity against rat RG2 cells assessed as synergistic effect index at 112.4 uM after 48 hrs in presence of 206 uM TMZ by MTT assay; type: functional
[13] = molecular target: MAP kinase p38 (Homo sapiens) (UniProt O15264+Q15759+Q16539+P53778); experiment: Inhibition of p38 phosphorylation at Tyr182 residues in human DBTRG-05MG cells at 112.4uM after 48 hrs in presence of TMZ by Western blot analysis (reference value: 1); type: cell-based
DBTRG-05MG [14] = experiment: Induction of cell cycle arrest in human DBTRG-05MG cells assessed as CyclinD1 expression at 112.4 uM after 48 hrs in presence of TMZ by Western blot analysis (reference value: 1); type: functional
[15] = Effect of MGMT expression in human DBTRG-05MG cells at 112.4 uM after 48 hrs by Western blot analysis (reference value: 1); type: functional
RG2 [16] = experiment: Synergistic cytotoxicity against rat RG2 cells assessed as combination index at 134.9 uM after 48 hrs in presence of 103 uM TMZ by MTT assay; type: functional
RG2 [17] = experiment: Synergistic cytotoxicity against rat RG2 cells assessed as synergistic effect index at 89.9 uM after 48 hrs in presence of 309 uM TMZ by MTT assay; type: functional
[18] = Effect on p38 expression in human DBTRG-05MG cells at 112.4uM after 48 hrs by Western blot analysis (reference value: 1); type: functional
RG2 [19] = experiment: Induction of cell cycle arrest in rat RG2 cells assessed as accumulation at S phase at 112.4 uM after 12 hrs in presence of TMZ by propidium iodide staining based flow cytometric analysis (reference value: 20.15 +/- 2.44%); type: functional
DBTRG-05MG [20] = experiment: Synergistic cytotoxicity against human DBTRG-05MG cells assessed as combination index at 112.4 uM after 48 hrs in presence of 515.1 uM TMZ by MTT assay; type: functional
RG2 [21] = experiment: Induction of DNA damage in rat RG2 cells assessed as ATM phosphorylation at ser1981 residues at 112.4 uM after 48 hrs in presence of TMZ by Western blot analysis (reference value: 1); type: functional
DBTRG-05MG [22] = experiment: Induction of apoptosis in human DBTRG-05MG cells assessed as increase in chromatin condensation at 112.4 uM after 48 hrs in presence of TMZ by TUNEL assay; type: functional, cell-based
DBTRG-05MG [23] = experiment: Induction of cell cycle arrest in human DBTRG-05MG cells assessed as CyclinD1 expression at 112.4 uM after 48 hrs by Western blot analysis (reference value: 1); type: functional
DBTRG-05MG [24] = experiment: Synergistic cytotoxicity against human DBTRG-05MG cells assessed as synergistic effect index at 134.9 uM after 48 hrs in presence of 103 uM TMZ by MTT assay; type: functional
[25] = Effect on AKT expression in human DBTRG-05MG cells at 112.4uM after 48 hrs in presence of TMZ by Western blot analysis (reference value: 1); type: functional
DBTRG-05MG [26] = experiment: Synergistic cytotoxicity against human DBTRG-05MG cells assessed as synergistic effect index at 134.9 uM after 48 hrs in presence of 515.1 uM TMZ by MTT assay; type: functional
[27] = Synergistic cytotoxicity against rat CTX TNA2 cells assessed as synergistic effect index at 89.9 uM after 48 hrs in presence of 206 uM TMZ by MTT assay; type: cell-based; conditions: ctx tna2, 48 h
[28] = Synergistic cytotoxicity against rat CTX TNA2 cells assessed as synergistic effect index at 112.4 uM after 48 hrs in presence of 309 uM TMZ by MTT assay; type: cell-based; conditions: ctx tna2, 48 h
DBTRG-05MG [29] = experiment: Induction of DNA damage in human DBTRG-05MG cells assessed as ATR phosphorylation at ser428 residues at 112.4 uM after 48 hrs by Western blot analysis (reference value: 1); type: functional
RG2 [30] = experiment: Induction of apoptosis in rat RG2 cells assessed as phosphorylated caspace-3 expression at 112.4 uM after 48 hrs in presence of TMZ by Western blot analysis (reference value: 1); type: functional
DBTRG-05MG [31] = experiment: Induction of cell cycle arrest in human DBTRG-05MG cells assessed as accumulation at S phase at 112.4 uM after 24 hrs in presence of TMZ by propidium iodide staining based flow cytometric analysis (reference value: 22.76 +/- 1.56%); type: functional
RG2 [32] = experiment: Induction of cell cycle arrest in rat RG2 cells assessed as CyclinA expression at 112.4 uM after 48 hrs by Western blot analysis (reference value: 1); type: functional
[33] = Synergistic cytotoxicity against rat CTX TNA2 cells assessed as combination index at 112.4 uM after 48 hrs in presence of 309 uM TMZ by MTT assay; type: cell-based; conditions: ctx tna2, 48 h
DBTRG-05MG [34] = experiment: Induction of apoptosis in human DBTRG-05MG cells assessed as phosphorylated caspace-9 expression at 112.4 uM after 48 hrs by Western blot analysis (reference value: 1); type: functional

In the case of `Cn1nnc2c(C(N)=O)ncn2c1=O` [TEMOZOLOMIDE], the “fold change (FC)” value (RG2 [1]) is reported as 1.3, the “fold change (FC)” value (DBTRG-05MG [2]) is reported as 2 and the “fold change (FC)” value [3] is reported as 1. For the same compound, the Activity (DBTRG-05MG [4]) was 42.28%, the fold change (FC) (DBTRG-05MG [5]) was 0.8 and the fold change (FC) (RG2 [6]) was 0.7. The Activity (DBTRG-05MG [7]) was 40.56%.

With `C[C@@H]1CC[C@H]2C(C)(C)[C@H]3C[C@@]12CC[C@@]3(C)O` [CEDROL] the “fold change (FC)” value (DBTRG-05MG [8]) was 1.9, the “fold change (FC)” value (DBTRG-05MG [9]) was 0.9 and the Activity [10] was “Non-Toxic”. The “fold change (FC)” value (RG2 [11]) was 0.8, the Activity_index (RG2 [12]) was 0.87 and the fold change (FC) [13] was 1.2. For the same compound, the “fold change (FC)” value (DBTRG-05MG [14]) was 0.4, the “fold change (FC)” value [15] was 0.8 and the CI (RG2 [16]) was 0.83. The Activity_index (RG2 [17]) was 0.72, the “fold change (FC)” value [18] was 1.1 and the Activity (RG2 [19]) was 21.29%. For the same compound, the CI (DBTRG-05MG [20]) was 0.7, the “fold change (FC)” value (RG2 [21]) was 1 and the Activity (DBTRG-05MG [22]) was “Active”. The “fold change (FC)” value (DBTRG-05MG [23]) was 0.7, the Activity_index (DBTRG-05MG [24]) was 0.86 and the “fold change (FC)” value [25] was 0.6. It also gave an Activity_index (DBTRG-05MG [26]) of 0.89, an Activity_index [27] of 0.39 and an Activity_index [28] of 0.51. For the same compound, the “fold change (FC)” value (DBTRG-05MG [29]) was 1.5, the “fold change (FC)” value (RG2 [30]) was 1.2 and the Activity (DBTRG-05MG [31]) was 14.17%. The “fold change (FC)” value (RG2 [32]) was 0.4, the CI [33] was 1.09 and the “fold change (FC)” value (DBTRG-05MG [34]) was 0.8.
